Reference: patent US10844051B2, “Substituted oxazoles for the treatment of cancer” (THE ROYAL INSTITUTION FOR THE ADCANCEMENT OF …, priority 2015, dated 2020)

What was measured:
Type in all cases: cell-based
[1] = system: phosphorylation of ERK in HCT-116 cells; test: Western blot, phosphorylation of ERK in HCT-116 cells; details: 10 μM, 24 hours
Description: HCT-116 cells were exposed to DMSO vehicle or compounds at designated doses for 24 hours.

human GATA2 = biological target: T1, human GATA2 (Homo sapiens, UniProt P23769); test: GATA2-dependent reporter assay in IHH cells; details: GATA-Luc reporter, 48 h
T1 construct: expressed in transfected cells; host or cells: IHH
T1 sequence (P23769 1-480): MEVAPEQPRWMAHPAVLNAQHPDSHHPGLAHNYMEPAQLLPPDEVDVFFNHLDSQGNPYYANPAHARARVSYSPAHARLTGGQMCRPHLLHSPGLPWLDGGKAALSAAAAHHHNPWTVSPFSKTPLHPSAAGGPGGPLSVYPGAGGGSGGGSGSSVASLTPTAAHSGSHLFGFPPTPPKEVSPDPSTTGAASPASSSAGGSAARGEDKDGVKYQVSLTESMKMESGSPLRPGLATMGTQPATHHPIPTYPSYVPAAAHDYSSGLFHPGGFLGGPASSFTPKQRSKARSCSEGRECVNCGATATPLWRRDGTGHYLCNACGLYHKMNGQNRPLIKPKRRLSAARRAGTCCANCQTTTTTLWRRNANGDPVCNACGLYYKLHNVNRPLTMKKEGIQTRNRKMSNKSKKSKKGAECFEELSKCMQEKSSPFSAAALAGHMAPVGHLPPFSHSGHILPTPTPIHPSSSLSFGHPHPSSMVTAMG
Description: K7174 is a known GATA2 inhibitor. The IHH cells were transiently transfected with empty vector (for the NT) or human GATA2-expressing plasmid as well as pRL-TK (internal control) and GATA-Luc reporter plasmids. Cells were exposed to DMSO vehicle or compounds for 48 h. Experiments were in triplicate.

human STING (hSTING) = biological target: T2, human STING (hSTING) (Homo sapiens, UniProt Q86WV6); test: hSTING ISRE-luc reporter assay in 293T cells; details: 24 hours
T2 construct: expressed in transfected cells; host or cells: 293T
T2 sequence (Q86WV6 whole entry H232R): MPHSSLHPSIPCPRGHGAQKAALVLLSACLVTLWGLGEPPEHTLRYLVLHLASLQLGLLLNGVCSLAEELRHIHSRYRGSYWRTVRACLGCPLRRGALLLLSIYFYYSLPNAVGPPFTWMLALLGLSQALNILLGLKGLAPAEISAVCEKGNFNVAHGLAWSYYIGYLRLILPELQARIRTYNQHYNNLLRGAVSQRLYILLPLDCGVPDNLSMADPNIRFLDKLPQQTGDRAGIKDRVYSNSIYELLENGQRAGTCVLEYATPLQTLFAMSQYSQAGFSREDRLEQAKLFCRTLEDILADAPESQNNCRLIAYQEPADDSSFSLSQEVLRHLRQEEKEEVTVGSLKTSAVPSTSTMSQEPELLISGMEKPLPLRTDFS
Description: ISRE-luc (reporter), pRL-TK (internal control) and hSTING-expressing plasmids were transiently transfected into 293T cells. Cells were exposed to DMSO vehicle control or compounds for 24 hours. Experiments were done in triplicate.

human GATA3 = biological target: T3, human GATA3 (Homo sapiens, UniProt P23771); test: GATA3-dependent reporter assay in IHH cells; details: 48 hours
T3 construct: expressed in transfected cells; host or cells: IHH
T3 sequence (P23771 whole entry): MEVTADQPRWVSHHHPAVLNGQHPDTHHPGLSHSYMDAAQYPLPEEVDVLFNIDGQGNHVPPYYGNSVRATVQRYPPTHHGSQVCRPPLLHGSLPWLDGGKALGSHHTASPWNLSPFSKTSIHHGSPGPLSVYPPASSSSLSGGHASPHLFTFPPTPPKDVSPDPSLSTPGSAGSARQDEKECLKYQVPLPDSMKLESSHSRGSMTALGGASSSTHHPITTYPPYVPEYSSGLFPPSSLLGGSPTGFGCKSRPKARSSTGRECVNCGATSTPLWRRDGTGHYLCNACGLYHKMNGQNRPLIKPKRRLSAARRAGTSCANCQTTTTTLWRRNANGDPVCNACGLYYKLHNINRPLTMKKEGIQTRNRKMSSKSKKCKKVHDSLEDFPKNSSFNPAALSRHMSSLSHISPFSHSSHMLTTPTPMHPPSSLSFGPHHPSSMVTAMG
Description: The IHH cells were transiently transfected with empty vector (for the NT) or human GATA3-expressing plasmid as well as pRL-TK (internal control) and GATA-Luc reporter plasmids. Cells were exposed to DMSO vehicle or compounds for 48 hours. Experiments were done in triplicate.

[2] = system: phosphorylation of ERK in Panc 10.05 cells; test: Western blot, phosphorylation of ERK in Panc 10.05 cells; details: 10 μM, 24 hours
Description: C-PARP, cleaved PARP. Panc10.05 cells were exposed to DMSO vehicle or compounds at designated doses for 24 hours.
Panc10.05 cells were exposed to DMSO vehicle or compounds at designated doses for 24 hours.

[3] = system: interferon signaling pathway in THP-1 cells; test: Western blot, interferon signaling in THP-1 cells; details: 16 hours
Description: THP1 cells were treated for 16 hours with the indicated concentration (μM) of compounds or DMSO vehicle control. Whole-cell extracts were prepared and subjected to Western blot analysis with the antibodies as indicated.

hSTING and/or mSTING = test: hSTING- or mSTING-dependent ISRE-luc reporter assay in 293T cells; details: 24 hours
Description: ISRE-luc (reporter), pRL-TK (internal control) and hSTING- or mSTING-expressing plasmids were transiently transfected into 293T cells. Cells were exposed to DMSO vehicle control or compounds for 24 hours. Experiments were done in triplicate.

mouse STING (mSTING) = biological target: T4, mouse STING (mSTING) (Mus musculus, UniProt Q3TBT3); test: mSTING ISRE-luc reporter assay in 293T cells; details: 24 hours
T4 construct: expressed in transfected cells; host or cells: 293T
T4 sequence (Q3TBT3 1-378): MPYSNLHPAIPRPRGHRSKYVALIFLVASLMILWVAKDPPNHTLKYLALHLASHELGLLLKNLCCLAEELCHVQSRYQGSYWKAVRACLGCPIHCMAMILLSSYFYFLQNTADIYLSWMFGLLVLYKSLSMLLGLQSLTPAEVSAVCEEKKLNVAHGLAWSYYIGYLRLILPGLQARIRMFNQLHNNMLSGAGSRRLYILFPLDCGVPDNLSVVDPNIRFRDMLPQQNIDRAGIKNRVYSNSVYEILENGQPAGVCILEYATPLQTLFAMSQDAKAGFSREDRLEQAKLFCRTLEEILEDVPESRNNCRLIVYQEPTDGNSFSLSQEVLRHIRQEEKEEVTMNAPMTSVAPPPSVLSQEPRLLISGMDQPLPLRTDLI
Description: ISRE-luc (reporter), pRL-TK (internal control) and mSTING-expressing plasmids were transiently transfected into 293T cells. Cells were exposed to DMSO vehicle control or compounds for 24 hours. Experiments were done in triplicate.

ETV1 = biological target: T5, ETV1 (Homo sapiens, UniProt P50549); test: ETV1-dependent reporter assay in HEK293 cells; details: 48 hours
T5 construct: expressed in transfected cells; host or cells: HEK293
T5 sequence (P50549 1-477): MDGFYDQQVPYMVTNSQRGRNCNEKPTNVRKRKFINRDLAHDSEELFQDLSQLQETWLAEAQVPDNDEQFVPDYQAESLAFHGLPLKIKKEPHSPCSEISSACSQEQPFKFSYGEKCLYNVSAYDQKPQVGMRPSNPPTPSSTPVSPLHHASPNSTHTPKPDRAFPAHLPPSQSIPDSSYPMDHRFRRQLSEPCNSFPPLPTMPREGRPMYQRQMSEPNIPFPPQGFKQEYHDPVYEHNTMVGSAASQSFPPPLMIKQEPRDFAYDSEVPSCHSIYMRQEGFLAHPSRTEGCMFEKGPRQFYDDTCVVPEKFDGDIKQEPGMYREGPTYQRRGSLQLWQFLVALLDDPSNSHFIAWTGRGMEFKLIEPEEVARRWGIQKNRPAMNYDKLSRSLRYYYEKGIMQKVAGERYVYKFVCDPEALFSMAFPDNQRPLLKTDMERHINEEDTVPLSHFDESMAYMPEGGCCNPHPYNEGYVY
Description: HEK293 cells were transiently transfected with empty vector (for the NT) or ERG-expressing plasmid as well as pRL-TK (internal control) and PUx3-Luc reporter. Cells were then exposed to DMSO vehicle or compounds at designated doses for 48 hours. Experiments were done in triplicate.
Experiments were done as described above in FIG. 1.1a) except that ERG plasmid was replaced by ETV1 plasmid.

**Q.** How did the “suppression of phosphorylation of ERK (Western blot)” value (from here on “suppression”) [1] turn out when COc1ccc(CC/C(=C/C(=O)N2CCC(O)(c3ccccc3)CC2)c2ccc(Cl)cc2)cc1F [Compound 1306] was run?
**A.** Its value is “potently suppressed phosphorylation of ERK”.

**Q.** How did the “GATA2 inhibition in GATA2-dependent reporter assay” value (human GATA2) turn out when Oc1cccc(-c2nc(CCCc3c[nH]c4ccccc34)oc2-c2cccc(O)c2)c1 [Compound 676] was run?
**A.** Its value is “GATA2 inhibitors”.

**Q.** And the “activation of hSTING in ISRE-luc reporter assay” value (human STING (hSTING))?
**A.** The value was “activate human STING (hSTING)”.

**Q.** And the “activity against GATA3 in GATA3-dependent reporter assay” value (human GATA3; 10 μM)?
**A.** The value was “inactive against GATA3”.

**Q.** And the “activity against GATA3 in GATA3-dependent reporter assay” value (human GATA3; compounds at 5 μM)?
**A.** The value was “inactive against GATA3”.

**Q.** For COc1ccc(CC/C(=C/C(=O)N2CCC(O)(c3cccc(C(F)(F)F)c3)CC2)c2ccccc2)cc1F [Compound 1200], which “suppression” value [2] is on record?
**A.** Its value is “potently suppressed phosphorylation of ERK”.

**Q.** Which results are given for O=C1Nc2ccccc2C1CCCc1nc(-c2cccc(F)c2)c(-c2cccc(F)c2)o1 (stereo not shown) [Compound 770]?
**A.** GATA2 inhibition in GATA2-dependent reporter assay (human GATA2): GATA2 inhibitors; activation of hSTING in ISRE-luc reporter assay (human STING (hSTING)): activate human STING (hSTING); activity against GATA3 in GATA3-dependent reporter assay (human GATA3; compounds at 5 μM): inactive against GATA3

**Q.** How did the “activation of interferon signaling pathway (Western blot)” value [3] turn out when Fc1cccc(-c2nc(CNCCc3c[nH]c4ccccc34)[nH]c2-c2cccc(F)c2)c1 [Compound 874] was run?
**A.** The value was “activate interferon signaling pathway”.

**Q.** What about the “activation of hSTING and/or mSTING in ISRE-luc reporter assay” value (from here on “activation of hSTING and/or mSTING”) (hSTING and/or mSTING) of the same compound?
**A.** The value was “activate hSTING and/or mSTING”.

**Q.** And the “activation of hSTING and/or mSTING” value (hSTING and/or mSTING; 10 μM)?
**A.** The value was “activate hSTING and/or mSting”.

**Q.** OC1(c2cccc(C(F)(F)F)c2)CCN(Cc2nc(-c3cccc(F)c3)c(-c3cccc(F)c3)[nH]2)CC1 [Compound 1209] was tested. Which “suppression” value [1] did it give?
**A.** The value was “potently suppressed phosphorylation of ERK”.

**Q.** For c1ccc(CN2CCN(Cc3nc(-c4ccccc4)c(-c4ccccc4)o3)CC2)cc1 [Compound 1176], which “activation of interferon signaling pathway (Western blot)” value [3] is on record?
**A.** The value was “activate interferon signaling pathway”.

**Q.** What about the “activation of hSTING and/or mSTING” value (hSTING and/or mSTING) of the same compound?
**A.** The value was “activate hSTING and/or mSTING”.

**Q.** And the “activation of hSTING and/or mSTING” value (hSTING and/or mSTING; 10 μM)?
**A.** The value was “activate hSTING and/or mSTING”.

**Q.** FC(F)(F)c1cccc(-c2nc(CCCc3c[nH]c4ccccc34)oc2-c2cccc(C(F)(F)F)c2)c1 [Compound 681] was tested. Which “activation of hSTING in ISRE-luc reporter assay” value (human STING (hSTING)) did it give?
**A.** Its value is “activate human STING (hSTING)”.

**Q.** What about the “activation of mSTING in ISRE-luc reporter assay” value (mouse STING (mSTING)) of the same compound?
**A.** The value was “activate mouse STING (mSTING)”.

**Q.** What does the source list for Fc1cccc(-c2nc(Cc3c[nH]c4ccccc34)oc2-c2cccc(F)c2)c1 [Compound 650]?
**A.** ETV1 inhibition in ETV1-dependent reporter assay (ETV1): ETV1 inhibitors; GATA2 inhibition in GATA2-dependent reporter assay (human GATA2): GATA2 inhibitors; activation of hSTING in ISRE-luc reporter assay (human STING (hSTING)): activate hSTING; activity against GATA3 in GATA3-dependent reporter assay (human GATA3; 10 μM): active against GATA3
